The record followed here is patent US12059422B2 (MEI Pharma, Inc., priority 2011, dated 2024).

Bounds are passed on as bounds.

Assay [1] has as its target mTOR (Homo sapiens, UniProt P42345). Put plainly: mTOR inhibition (Table 1). The assay is classed as biochemical. The following applies: Table 1, no method described.
In assay [2] the target is PI3Kα (Homo sapiens, UniProt P42336). Put plainly: ELISA assay for PI3Kα: in-cell ELISA, phosphorylation of AKT (Thr308) in MDA-MB-453 cells. The format is cell-based. The following applies: cellular, pAKT (Thr308), IGF-1 stimulation, read-out: IC50 p110α. Here is the method: PI3K alpha (PI3Kα) activity was determined by measuring the phosphorylation of AKT (Thr308) using an in-cell ELISA assay. MDA-MB-453 (breast carcinoma) cells were obtained from ATCC (ATCC #HTB-131). Growth medium was DMEM (CellGro #CV-10-013-CV) supplemented with 10% fetal bovine serum, 100 IU/mL penicillin, 100 μg/mL streptomycin, and 1×MEM non-essential amino acids. Phosphate buffered saline (PBS) contained 2.7 M NaCl, 54 mM KCl, 86 mM […] (dibasic, anhydrous), and 28 mM […] (monobasic, anhydrous) at pH 7.2. Stimulation mixture (10×) was 1000 ng/mL LONG® R^3 human IGF-1 (Sigma #I1271) diluted in serum-free DMEM medium (CellGro #CV-10-013-CV). Compounds for testing were dissolved and serially diluted in 100% DMSO (total of 10 concentrations), then diluted in serum-free DMEM to 2× final assay concentration. Fixative solution (2×) was 8% formaldehyde (Amresco #M134) diluted in PBS. Permeabilization solution was PBS supplemented with 0.1% Triton X-100. Blocking buffer was obtained from LiCor (LiCor #927-40000). Wash buffer was PBS supplemented with 0.1% Tween-20. Primary antibody solution was rabbit anti-pAKT^T308 monoclonal antibody (Cell Signaling #2965) and mouse anti-total S6 (Santa Cruz #74459) diluted 1:500 and 1:2000, respectively, in the blocking buffer. Secondary antibody solution was IRDye 800CW-conjugated goat anti-rabbit IgG (LiCor #926-32211) and IRDye 680LT-conjugated goat anti-mouse IgG (LiCor #926-68020) diluted 1:1000 and 1:2000, respectively, in the blocking buffer.
Chain of PI3Kα (P27986 2-724): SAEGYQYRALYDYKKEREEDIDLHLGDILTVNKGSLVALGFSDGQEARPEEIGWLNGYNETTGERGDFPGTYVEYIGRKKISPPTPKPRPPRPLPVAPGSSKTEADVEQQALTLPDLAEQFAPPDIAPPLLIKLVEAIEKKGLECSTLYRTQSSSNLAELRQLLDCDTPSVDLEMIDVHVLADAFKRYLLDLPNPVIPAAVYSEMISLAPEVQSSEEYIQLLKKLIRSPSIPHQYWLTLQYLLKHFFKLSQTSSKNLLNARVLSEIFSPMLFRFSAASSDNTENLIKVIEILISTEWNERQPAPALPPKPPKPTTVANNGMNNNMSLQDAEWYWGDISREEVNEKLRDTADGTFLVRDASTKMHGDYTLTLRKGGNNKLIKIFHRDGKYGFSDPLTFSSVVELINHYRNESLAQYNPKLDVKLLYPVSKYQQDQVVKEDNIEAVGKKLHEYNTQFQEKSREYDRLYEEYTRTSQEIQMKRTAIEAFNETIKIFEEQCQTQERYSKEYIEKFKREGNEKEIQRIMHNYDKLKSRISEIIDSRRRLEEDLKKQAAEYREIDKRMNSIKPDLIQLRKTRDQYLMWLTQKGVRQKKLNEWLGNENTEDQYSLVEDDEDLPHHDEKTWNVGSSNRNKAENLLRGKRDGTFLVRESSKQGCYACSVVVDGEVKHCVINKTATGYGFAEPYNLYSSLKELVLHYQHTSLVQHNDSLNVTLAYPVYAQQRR
Chain of PI3Kα (P42336 whole entry): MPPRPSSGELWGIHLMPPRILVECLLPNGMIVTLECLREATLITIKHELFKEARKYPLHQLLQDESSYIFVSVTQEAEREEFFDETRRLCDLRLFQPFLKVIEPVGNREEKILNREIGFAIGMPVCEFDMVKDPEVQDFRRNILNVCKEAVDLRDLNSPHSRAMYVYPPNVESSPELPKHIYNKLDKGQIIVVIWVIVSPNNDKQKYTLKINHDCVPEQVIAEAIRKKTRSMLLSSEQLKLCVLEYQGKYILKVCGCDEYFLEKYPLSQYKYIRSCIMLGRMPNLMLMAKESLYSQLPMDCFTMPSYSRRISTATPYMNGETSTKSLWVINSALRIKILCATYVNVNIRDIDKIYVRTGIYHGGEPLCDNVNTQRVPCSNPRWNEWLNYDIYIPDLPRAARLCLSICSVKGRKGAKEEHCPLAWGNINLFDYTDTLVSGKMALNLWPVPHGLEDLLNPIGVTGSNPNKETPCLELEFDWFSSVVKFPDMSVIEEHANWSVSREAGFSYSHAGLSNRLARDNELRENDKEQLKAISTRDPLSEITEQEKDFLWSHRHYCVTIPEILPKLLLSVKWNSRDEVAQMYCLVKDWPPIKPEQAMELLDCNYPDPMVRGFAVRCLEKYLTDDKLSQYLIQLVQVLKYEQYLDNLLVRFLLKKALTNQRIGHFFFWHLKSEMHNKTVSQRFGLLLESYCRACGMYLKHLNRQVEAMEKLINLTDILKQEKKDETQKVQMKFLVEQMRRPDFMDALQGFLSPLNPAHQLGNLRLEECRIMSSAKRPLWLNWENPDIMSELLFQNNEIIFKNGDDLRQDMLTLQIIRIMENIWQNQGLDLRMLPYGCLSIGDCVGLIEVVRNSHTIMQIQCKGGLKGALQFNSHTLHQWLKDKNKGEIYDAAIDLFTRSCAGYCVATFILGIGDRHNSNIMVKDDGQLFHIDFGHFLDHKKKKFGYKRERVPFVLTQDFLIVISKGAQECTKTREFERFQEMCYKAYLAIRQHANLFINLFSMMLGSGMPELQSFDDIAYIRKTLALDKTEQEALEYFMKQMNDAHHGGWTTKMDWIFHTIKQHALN
MDA-MB-453 cells were subcultured in growth medium and seeded into flat, clear bottom, 96-well plates (Corning #3904) at 40000 cells/well, then incubated overnight in a 5% CO2 incubator at 37° C. Growth medium in plates was replaced with 100 μL/well serum-free DMEM and incubated overnight at 37° C. in a 5% CO2 incubator. Fresh serum-free DMEM (50 μL/well) was added to plates. Compound treatment was performed by adding 50 μL/well of 2× compound mixture to plates and incubating for 1 hr at 37° C. and 5% CO2, after which 11 μL/well of 10× stimulation mixture was added and plates were incubated for 10 min at 37° C. and 5% CO2. Fixation was performed by adding 110 μL/well of 2× fixative solution to the plates and incubating for 20 min at room temperature. Permeabilization was performed by replacing fixation solution with 150 μL/well permeabilization solution and incubating for 10 min at room temperature. Permeabilization was repeated (for a total of 2 times). Permeabilization solution was replaced with 100 μL/well blocking buffer and plates were incubated for 1 hour at room temperature, after which 100 μL/well of primary antibody solution was added and plates were incubated overnight at 4° C. Plates were washed with wash buffer, after which 100 μL/well of secondary antibody solution was added to the plates and incubated in the dark for 1 hr at room temperature. Plates were washed with wash buffer, followed by a wash with PBS. After completely removing PBS, plates were scanned on the Licor Odyssey Imager. Images were quantified using Licor Odyssey application software. IC50 values were determined by curve fitting using a Collaborative Drug Discovery database (www.collaborativedrug.com).
On the technique in general: An ELISA detects its analyte on a solid surface through an enzyme-linked reagent.

The target of assay [3] is T1, PI3Kδ (Homo sapiens, UniProt O00329).
T1 construct: endogenous in cells; host or cells: Raji (ATCC #CCL-86)
T1 sequence (O00329 whole entry): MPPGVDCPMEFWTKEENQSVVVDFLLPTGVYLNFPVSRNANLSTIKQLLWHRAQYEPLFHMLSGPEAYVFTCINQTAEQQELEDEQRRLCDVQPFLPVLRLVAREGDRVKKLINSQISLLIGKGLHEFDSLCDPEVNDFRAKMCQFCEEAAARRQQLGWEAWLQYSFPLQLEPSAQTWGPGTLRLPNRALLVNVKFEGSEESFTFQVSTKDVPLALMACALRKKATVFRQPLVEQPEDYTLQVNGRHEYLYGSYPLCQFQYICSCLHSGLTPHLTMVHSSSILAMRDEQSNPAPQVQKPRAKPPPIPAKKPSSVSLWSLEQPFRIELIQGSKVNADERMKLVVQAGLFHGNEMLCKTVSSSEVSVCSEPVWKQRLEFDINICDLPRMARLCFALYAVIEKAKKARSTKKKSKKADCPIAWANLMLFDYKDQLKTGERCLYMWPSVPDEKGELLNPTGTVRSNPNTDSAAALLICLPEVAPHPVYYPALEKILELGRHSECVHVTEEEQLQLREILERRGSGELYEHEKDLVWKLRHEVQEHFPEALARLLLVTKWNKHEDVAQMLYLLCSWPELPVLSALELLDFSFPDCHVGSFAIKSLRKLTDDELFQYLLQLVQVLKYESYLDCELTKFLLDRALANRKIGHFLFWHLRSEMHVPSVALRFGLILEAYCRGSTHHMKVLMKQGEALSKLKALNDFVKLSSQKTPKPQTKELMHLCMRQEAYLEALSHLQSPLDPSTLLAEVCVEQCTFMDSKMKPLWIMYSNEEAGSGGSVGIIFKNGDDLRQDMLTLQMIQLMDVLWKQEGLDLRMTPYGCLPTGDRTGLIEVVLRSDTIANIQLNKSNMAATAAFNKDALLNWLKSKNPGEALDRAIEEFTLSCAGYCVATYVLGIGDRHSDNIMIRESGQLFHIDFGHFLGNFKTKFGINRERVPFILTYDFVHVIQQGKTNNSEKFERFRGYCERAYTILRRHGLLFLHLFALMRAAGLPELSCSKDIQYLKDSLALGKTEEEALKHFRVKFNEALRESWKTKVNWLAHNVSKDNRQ
T1 sequence (P27986 whole entry partner): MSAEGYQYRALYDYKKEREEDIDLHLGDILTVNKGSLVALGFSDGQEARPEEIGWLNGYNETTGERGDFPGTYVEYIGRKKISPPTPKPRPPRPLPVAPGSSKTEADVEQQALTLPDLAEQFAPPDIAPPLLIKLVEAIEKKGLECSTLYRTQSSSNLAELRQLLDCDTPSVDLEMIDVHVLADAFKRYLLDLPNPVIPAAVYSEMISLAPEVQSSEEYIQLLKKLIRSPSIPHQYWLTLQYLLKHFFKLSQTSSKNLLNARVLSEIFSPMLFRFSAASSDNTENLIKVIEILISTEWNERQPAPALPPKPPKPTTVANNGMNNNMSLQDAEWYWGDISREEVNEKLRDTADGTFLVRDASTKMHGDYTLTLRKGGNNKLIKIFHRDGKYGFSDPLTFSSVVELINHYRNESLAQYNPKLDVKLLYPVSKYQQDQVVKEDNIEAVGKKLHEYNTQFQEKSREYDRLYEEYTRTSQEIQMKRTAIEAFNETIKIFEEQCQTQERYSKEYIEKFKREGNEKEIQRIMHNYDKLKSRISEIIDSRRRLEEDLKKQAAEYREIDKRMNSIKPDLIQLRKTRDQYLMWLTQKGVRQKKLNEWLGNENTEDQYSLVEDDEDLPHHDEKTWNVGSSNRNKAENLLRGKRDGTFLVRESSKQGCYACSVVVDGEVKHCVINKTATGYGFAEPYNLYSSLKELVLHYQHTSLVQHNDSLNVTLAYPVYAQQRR
The assay can be described thus: ELISA assay for PI3Kδ: sandwich ELISA, phosphorylation of AKT (Thr308) in Raji cells. Conditions: for IC50: cellular, pAKT (Thr308), Raji cells, anti-Human IgM stimulation, read-out: IC50 p110δ; for α/δ ratio / β/δ ratio / γ/δ ratio: ratio of cellular IC50 values, Table 2. The assay is classed as cell-based. In a few lines: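 Raji cells, serum-starved 2 hrs, treated with compound (10 concentrations) for 2 hrs at 37° C, then stimulated 30 min with anti-human IgM. Lysates analysed by sandwich ELISA for pAKT Thr308 and total AKT with luminescent read-out. IC50 from curve fitting.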

One may read the IC50 as the midpoint of a concentration-inhibition curve. Compound `COc1cc(CC(C)(C)Nc2nc(N3CCOCC3)nc(-n3c(C(F)F)nc4ccccc43)n2)ccc1F` [Compound A50, 4-(2-(difluoromethyl)-1H-benzo[d]imidazol-1-yl)-N-(1-(4-fluoro-3-methoxyphenyl)-2-methylpropan-2-yl)-6-morpholino-1,3,5-triazin-2-amine] gave an IC50 in assay [1] greater than 500 nM. For the same compound, the concentration for half-maximal inhibition (IC50) in assay [2] was greater than 500 nM. In assay [3], the IC50 is no more than 100 nM, the α/δ ratio entry is reported as “A’”, the β/δ ratio result is “A’” and the γ/δ ratio entry is “A’”.
As to `CCN1CCC(c2ccccc2CC(C)(C)Nc2nc(N3CCOCC3)nc(-n3c(C(F)F)nc4ccccc43)n2)CC1` [Compound A70, 4-(2-(difluoromethyl)-1H-benzo[d]imidazol-1-yl)-N-(1-(2-(1-ethylpiperidin-4-yl)phenyl)-2-methylpropan-2-yl)-6-morpholino-1,3,5-triazin-2-amine], the concentration for half-maximal inhibition (IC50) in assay [1] was greater than 500 nM. The IC50 in assay [2] is greater than 500 nM. Besides, in assay [3], the IC50 is no more than 100 nM, the α/δ ratio result is listed as “A’”, the β/δ ratio entry is on record as “A’” and the γ/δ ratio entry is “A’”.
Consider `CC(C)(Cc1ccccc1C1CCNCC1)Nc1nc(N2CCOCC2)nc(-n2c(C(F)F)nc3ccccc32)n1` [Compound A68, 4-(2-(difluoromethyl)-1H-benzo[d]imidazol-1-yl)-N-(2-methyl-1-(2-(piperidin-4-yl)phenyl)propan-2-yl)-6-morpholino-1,3,5-triazin-2-amine], for which the IC50 in assay [1] was greater than 500 nM. Moreover, in assay [2], the IC50 was greater than 500 nM. In addition, in assay [3], the IC50 was no more than 100 nM, the α/δ ratio result is given as “A’”, the β/δ ratio entry is given as “A’” and the γ/δ ratio result was “A’”.
In the case of `CC(C)N1CCC(c2ccccc2CC(C)(C)Nc2nc(N3CCOCC3)nc(-n3c(C(F)F)nc4ccccc43)n2)CC1` [Compound A71, 4-(2-(difluoromethyl)-1H-benzo[d]imidazol-1-yl)-N-(1-(2-(1-isopropylpiperidin-4-yl)phenyl)-2-methylpropan-2-yl)-6-morpholino-1,3,5-triazin-2-amine], in assay [1], the half-maximal inhibitory concentration (IC50) is greater than 500 nM. For the same compound, in assay [2], the half-maximal inhibitory concentration (IC50) is greater than 500 nM. In assay [3], the IC50 is no more than 100 nM, the α/δ ratio entry is reported as “A’”, the β/δ ratio result is “A’” and the γ/δ ratio entry is “A’”.
`CC(C)(Cc1ccccc1-c1ccccc1Cl)Nc1nc(N2CCOCC2)nc(-n2c(C(F)F)nc3ccccc32)n1` [Compound A61, 4-(2-(difluoromethyl)-1H-benzo[d]imidazol-1-yl)-N-(1-(6′-chlorobiphenyl-2-yl)-2-methylpropan-2-yl)-6-morpholino-1,3,5-triazin-2-amine] gave an IC50 in assay [1] greater than 500 nM. Moreover, the IC50 in assay [2] was greater than 500 nM. Besides, in assay [3], the IC50 is no more than 100 nM, the α/δ ratio entry is “A’”, the β/δ ratio entry is reported as “A’” and the γ/δ ratio entry is on record as “A’”.
In the case of `COc1cc(-c2ccccc2CC(C)(C)Nc2nc(N3CCOCC3)nc(-n3c(C(F)F)nc4ccccc43)n2)ccn1` [Compound A41, 4-(2-(difluoromethyl)-1H-benzo[d]imidazol-1-yl)-N-(1-(2-(2-methoxypyridin-4-yl)phenyl)-2-methylpropan-2-yl)-6-morpholino-1,3,5-triazin-2-amine], the IC50 in assay [1] was greater than 500 nM. The IC50 in assay [2] was greater than 500 nM. In assay [3], the IC50 was no more than 100 nM, the α/δ ratio entry was “A’”, the β/δ ratio result is “A’” and the γ/δ ratio entry was “A’”.
For `CC(C)(Cc1ccccc1-c1cccnc1F)Nc1nc(N2CCOCC2)nc(-n2c(C(F)F)nc3ccccc32)n1` [Compound A62], the IC50 in assay [1] was greater than 500 nM. Also, the IC50 in assay [2] is greater than 500 nM. Also, in assay [3], the IC50 was no more than 100 nM, the α/δ ratio entry is “A’”, the β/δ ratio result is on record as “A’” and the γ/δ ratio result is “A’”.
`CC(C)(Cc1ccccc1F)Nc1nc(N2CCOCC2)nc(-n2c(C(F)F)nc3ccccc32)n1` [Compound A15, 4-(2-(difluoromethyl)-1H-benzo[d]imidazol-1-yl)-N-(1-(2-fluorophenyl)-2-methylpropan-2-yl)-6-morpholino-1,3,5-triazin-2-amine] registered an IC50 in assay [1] greater than 500 nM. The IC50 in assay [2] is greater than 500 nM. For the same compound, in assay [3], the IC50 is no more than 100 nM, the α/δ ratio entry is on record as “A’”, the β/δ ratio result was “C’” and the γ/δ ratio entry is “A’”.
Regarding `COc1cccc(CC(C)(C)Nc2nc(N3CCOCC3)nc(-n3c(C(F)F)nc4ccccc43)n2)c1` [Compound A21, 4-(2-(difluoromethyl)-1H-benzo[d]imidazol-1-yl)-N-(1-(3-methoxyphenyl)-2-methylpropan-2-yl)-6-morpholino-1,3,5-triazin-2-amine], in assay [1], the IC50 is greater than 500 nM. In addition, the IC50 in assay [2] was greater than 500 nM. Also, in assay [3], the IC50 is no more than 100 nM, the α/δ ratio entry was “A’”, the β/δ ratio entry is “A’” and the γ/δ ratio result is “A’”.
The compound `CN1CCC(c2ccccc2CC(C)(C)Nc2nc(N3CCOCC3)nc(-n3c(C(F)F)nc4ccccc43)n2)CC1` [Compound A35, 4-(2-(difluoromethyl)-1H-benzo[d]imidazol-1-yl)-N-(2-methyl-1-(2-(1-methylpiperidin-4-yl)phenyl)propan-2-yl)-6-morpholino-1,3,5-triazin-2-amine] registered an IC50 in assay [1] greater than 500 nM. Moreover, the IC50 in assay [2] was greater than 500 nM. Further, in assay [3], the IC50 is no more than 100 nM, the α/δ ratio entry was “A’”, the β/δ ratio entry is on record as “A’” and the γ/δ ratio result is “A’”.
The compound `CC(C)(Cc1ccc(F)cc1F)Nc1nc(N2CCOCC2)nc(-n2c(C(F)F)nc3ccccc32)n1` [Compound A51, 4-(2-(difluoromethyl)-1H-benzo[d]imidazol-1-yl)-N-(1-(2,4-difluorophenyl)-2-methylpropan-2-yl)-6-morpholino-1,3,5-triazin-2-amine] returned an IC50 in assay [1] greater than 500 nM. The IC50 in assay [2] is greater than 500 nM. In assay [3], the IC50 was no more than 100 nM, the α/δ ratio entry is reported as “A’”, the β/δ ratio entry is listed as “D’” and the γ/δ ratio entry is reported as “A’”.
`CC(C)(Cc1ccc(F)cc1)Nc1nc(N2CCOCC2)nc(-n2c(C(F)F)nc3ccccc32)n1` [Compound A22, 4-(2-(difluoromethyl)-1H-benzo[d]imidazol-1-yl)-N-(1-(4-fluorophenyl)-2-methylpropan-2-yl)-6-morpholino-1,3,5-triazin-2-amine]: in assay [1], the IC50 was greater than 500 nM. Further, the IC50 in assay [2] was greater than 500 nM. In addition, in assay [3], the IC50 is no more than 100 nM, the α/δ ratio result is “A’”, the β/δ ratio entry is “A’” and the γ/δ ratio result is “A’”.
Compound `Cn1cc(-c2ccccc2CC(C)(C)Nc2nc(N3CCOCC3)nc(-n3c(C(F)F)nc4ccccc43)n2)cn1` [Compound A45, 4-(2-(difluoromethyl)-1H-benzo[d]imidazol-1-yl)-N-(2-methyl-1-(2-(1-methyl-1H-pyrazol-4-yl)phenyl)propan-2-yl)-6-morpholino-1,3,5-triazin-2-amine] had an IC50 in assay [1] greater than 500 nM. Also, the IC50 in assay [2] fell in the range of 200 to 500 nM. Moreover, in assay [3], the half-inhibitory concentration (IC50) is no more than 100 nM, the α/δ ratio result was “A’”, the β/δ ratio entry is on record as “B’” and the γ/δ ratio result is given as “A’”.
